Test results as given in the NIST ThermoML archive (doi:10.1021/je025625m).

Assay: excess molar enthalpy (molar enthalpy of mixing); xn = mol fraction of the nth substance listed
Settings: 298.15 K, 101 kPa, Liquid

CCCCCCCl [1-chlorohexane] + c1ccccc1
Settings | excess molar enthalpy [kcal/mol]
x2 = 0.0723 | 0.00146
x2 = 0.0744 | 0.0017
x2 = 0.0805 | 0.00146
x2 = 0.0888 | 0.00167
x2 = 0.1407 | 0.00311
x2 = 0.1427 | 0.00351
x2 = 0.1437 | 0.00351
x2 = 0.2125 | 0.00538
x2 = 0.2862 | 0.00791
x2 = 0.3323 | 0.00992
x2 = 0.394 | 0.0127
x2 = 0.4431 | 0.0156
x2 = 0.5015 | 0.0189
x2 = 0.5375 | 0.0208
x2 = 0.541 | 0.0208
x2 = 0.5524 | 0.0218
x2 = 0.582 | 0.0229
x2 = 0.6153 | 0.0245
x2 = 0.6575 | 0.0256
x2 = 0.7164 | 0.0265
x2 = 0.7288 | 0.0266
x2 = 0.7352 | 0.0262
x2 = 0.7928 | 0.025
x2 = 0.8215 | 0.0242
x2 = 0.8484 | 0.0224
x2 = 0.8629 | 0.0207
x2 = 0.894 | 0.0174
x2 = 0.9274 | 0.0132
x2 = 0.9535 | 0.00918
